Key:
alphafetoprotein = assay: Clinical case reports: monitoring of serum alphafetoprotein level under daily oral simvastatin; type: in vivo, patients
Experimental: (§1) In order to avoid unforeseen side effects, the treatment was initiated at a 20 mg dose once daily for one week. The dose was then increased to 40 mg daily during the following week, and was again increased to 60 mg daily during the third week. During the fourth week, the dose was increased to 80 mg daily (two tablets of 40 mg each) and remained the same thereafter. Following the administration of simvastatin as described above, the patients' alphafetoprotein levels were monitored on a monthly basis until values reached normal levels and then every three months thereafter in association with liver function tests and coagulation studies as part of a follow-up. In addition, an abdominal ultrasound test was performed every four months in an attempt to identify any new liver masses, and MRI (magnetic resonance imaging) studies of the liver were performed.

liver cancer = assay: Clinical case reports: imaging studies of the liver (abdominal ultrasound, MRI) for new liver masses; type: in vivo, patients
Experimental: as §1

Compound: CCC(C)(C)C(=O)OC1C[C@@H](C)C=C2C=C[C@H](C)[C@H](CC[C@@H]3C[C@@H](O)CC(=O)O3)[C@H]21 (relative stereo) [simvastatin, butanoic acid, 2,2-dimethyl-,1,2,3,7,8,8a-hexahydro-3,7-dimethyl-8-[2-(tetrahydro-4-hydroxy-6-oxo-2H-pyran-2-yl)-ethyl]-1-naphthalenyl ester, [1S-[1α,3α,7β,8β(2S*,4S*),-8aβ]]]
- time until alphafetoprotein level normalized (alphafetoprotein; Case No. 1: Hepatitis B, rapidly increasing alphafetoprotein, progressively increased dosages of simvastatin): four
- alphafetoprotein level after patient stopped taking simvastatin (alphafetoprotein; Case No. 1: after stopping simvastatin): 33
- alphafetoprotein level after simvastatin was re-introduced (alphafetoprotein; Case No. 1: re-introduced at progressively increased dosages): normalized and has remained normalized
- alphafetoprotein level on maintenance dosages of simvastatin (alphafetoprotein; Case No. 2): remained normalized
- time until alphafetoprotein level normalized (alphafetoprotein; Case No. 2: Hepatitis B, progressively increasing alphafetoprotein, increasing doses of simvastatin): ≤ 5 months
- alphafetoprotein level after normalization (alphafetoprotein; Case No. 3): remained normalized
- time until alphafetoprotein level normalized (alphafetoprotein; Case No. 3: Hepatitis C, alphafetoprotein above 50 before treatment, protocol administration): ≤ 2 months
- elevation of alphafetoprotein during observation period (alphafetoprotein; Case No. 4: patients with Hepatitis B and C or other liver cirrhosis, normal alphafetoprotein, simvastatin daily since diagnosis): None of these patients showed an elevation of alphafetoprotein
- course of alphafetoprotein level (alphafetoprotein; patients with an elevated alphafetoprotein level (above 10 ng/mL) who underwent treatment): progressively decline over several weeks to several months to normal values
- liver tumor mass in repeated imaging studies (liver cancer; Case No. 1): never showed any liver tumor mass
- liver tumor mass in repeated imaging studies (liver cancer; Case No. 2): never showed any liver tumor mass
- liver tumor mass in repeated imaging studies (liver cancer; Case No. 3): never showed any liver tumor mass
- subsequent development of liver cancer (liver cancer; patients with an elevated alphafetoprotein level who underwent treatment): None of the patients subsequently developed liver cancer
- malignancy detected by careful imaging studies (liver cancer; patients with known liver diseases at high risk, liver diseases continued to progress): no malignancy was ever detected
